Values after ≈ are worked out from the molar mass of the structure shown. Values belong to the molecule of their own block, whether it stands above or below them.
Tests used:
BaF3 [1] = assay: Anti-proliferative activity against mouse BaF3 cells expressing wild-type EGFR incubated for 3 days by Cell Titer Glo 2.0 assay; type: functional; details: BaF3, 72 h, time 3 day
BaF3 [2] = assay: Anti-proliferative activity against mouse BaF3 cells expressing EGFR […]/T790M/C797S mutant incubated for 3 days by Cell Titer Glo 2.0 assay; type: functional; details: BaF3, 72 h, time 3 day
[3] = Plasma protein binding in mouse; type: ADME, cell-free; details: read-out: PPB
[4] = Metabolic stability in human liver microsomes assessed as compound remaining; type: ADME, Microsome
[5] = Metabolic stability in mouse liver microsomes assessed as compound remaining; type: ADME, Microsome
[6] = Apparent permeability in MDCK cells; type: ADME, cell-based, Canis lupus familiaris; details: dog
[7] = Lipophilicity, logD of compound; type: physicochemical; details: octanol/water
BaF3 [8] = assay: Anti-proliferative activity against mouse BaF3 cells expressing EGFR L858R/T790M/C797S mutant incubated for 3 days by Cell Titer Glo 2.0 assay; type: functional; details: BaF3, 72 h, time 3 day
[9] = Plasma protein binding in human; type: ADME, cell-free; details: read-out: PPB
[10] = Solubility of compound at pH 1.2; type: physicochemical; details: buffer
[11] = Toxicity in Balb/c nude mouse allografted with mouse BaF3 cells expressing EGFR […]/T790M/[…] mutant assessed as signs of toxicity at 25 to 100 mg/kg, po qd for 5 days consecutively; type: organism-based; details: in vivo, 120 h, dose 25-100 mg/kg, time 5 day
BaF3 [12] = assay: Antitumor activity against mouse BaF3 cells expressing EGFR […]/T790M/[…] mutant allografted in Balb/c nude mouse at 25 mg/kg, po bid for 5 days consecutively relative to control; type: functional; details: BaF3, 120 h, time 5 day, read-out: TGI
[13] = Toxicity in Balb/c nude mouse allografted with mouse BaF3 cells expressing EGFR […]/T790M/[…] mutant assessed as body weight loss at 25 to 100 mg/kg, po qd for 5 days consecutively; type: organism-based; details: in vivo, 120 h, dose 25-100 mg/kg, time 5 day
BaF3 [14] = assay: Antitumor activity against mouse BaF3 cells expressing EGFR […]/T790M/[…] mutant allografted in Balb/c nude mouse administered orally twice daily for 5 days consecutively; type: functional, cell-based; details: dose 12.5-25 mg/kg, route po, time 5.0 day
BaF3 [15] = assay: Antitumor activity against mouse BaF3 cells expressing EGFR […]/T790M/[…] mutant allografted in Balb/c nude mouse administered orally once daily for 5 days consecutively; type: functional, cell-based; details: dose 25-100 mg/kg, route po, time 5.0 day
[16] = Toxicity in Balb/c nude mouse allografted with mouse BaF3 cells expressing EGFR […]/T790M/[…] mutant assessed as body weight loss at 12.5 to 25 mg/kg, po bid for 5 days consecutively; type: organism-based; details: in vivo, 120 h, dose 12.5-25 mg/kg, time 5 day
BaF3 [17] = assay: Antitumor activity against mouse BaF3 cells expressing EGFR […]/T790M/[…] mutant allografted in Balb/c nude mouse at 25 mg/kg, po qd for 5 days consecutively relative to control; type: functional; details: BaF3, 120 h, time 5 day, read-out: TGI
[18] = In vivo inhibition of phosphorylation of EGFR […]/T790M/[…] mutant at Y1068 in mouse BaF3 cells allografted in Balb/c nude mouse at 12.5 to 100 mg/kg, po measured after 6 hrs by Western blot analysis relative to control; type: functional; details: dose 12.5-100 mg/kg
BaF3 [19] = assay: Antitumor activity against mouse BaF3 cells expressing EGFR […]/T790M/[…] mutant allografted in Balb/c nude mouse at 12.5 mg/kg, po bid for 5 days consecutively relative to control; type: functional; details: BaF3, 120 h, time 5 day, read-out: TGI
BaF3 [20] = assay: Antitumor activity against mouse BaF3 cells expressing EGFR […]/T790M/[…] mutant allografted in Balb/c nude mouse at 100 mg/kg, po qd for 5 days consecutively relative to control; type: functional; details: BaF3, 120 h, time 5 day, read-out: TGI
[21] = Toxicity in Balb/c nude mouse allografted with mouse BaF3 cells expressing EGFR […]/T790M/[…] mutant assessed as signs of toxicity at 12.5 to 25 mg/kg, po bid for 5 days consecutively; type: organism-based; details: in vivo, 120 h, dose 12.5-25 mg/kg, time 5 day
[22] = Solubility of compound at pH 6.8; type: physicochemical; details: buffer

Compound: CC(C)Oc1cc(Nc2ccnc(-c3cnn(S(=O)(=O)C4CC4)c3)n2)ncc1-c1cnn(C2CCOCC2)c1
GI50 (BaF3 [1]): 353 nM
GI50 (BaF3 [2]): 46 nM

Compound: Cc1nn([C@H]2C[C@H](C)N(C)C2)cc1-c1cnc(Nc2ccnc(-c3cnn(S(=O)(=O)C4CC4)c3)n2)cc1OC(C)C
GI50 (BaF3 [1]): 2290 nM
GI50 (BaF3 [2]): 168 nM

Compound: CC(C)Oc1cc(Nc2ccnc(-c3cnn(S(=O)(=O)C4CC4)c3)n2)ncc1-c1cn([C@H]2C[C@H](C)N(C)C2)nc1F
GI50 (BaF3 [1]): 856 nM
GI50 (BaF3 [2]): 43 nM

Compound: CC(C)Oc1cc(Nc2ccnc(-c3cnn(S(=O)(=O)C4CC4)c3)n2)ncc1-c1cnn(-c2ccncc2)c1
GI50 (BaF3 [1]): > 10000 nM
GI50 (BaF3 [2]): 601 nM

Compound: CC(C)Oc1cc(Nc2ccnc(-c3cnn(S(=O)(=O)C4CC4)c3)n2)ncc1-c1cnn([C@H]2C[C@H](C)N(C)C2)c1
GI50 (BaF3 [1]): 387 nM
GI50 (BaF3 [2]): 26 nM

Compound: CC(C)Oc1cc(Nc2ccnc(-c3cnn(S(=O)(=O)C4CC4)c3)n2)ncc1-c1cnn(C)c1
GI50 (BaF3 [1]): 879 nM
GI50 (BaF3 [2]): 61 nM

Second part, led by results:

GI50 (BaF3 [1]): 463 nM
GI50 (BaF3 [2]): 19 nM
Compound: CC(C)Oc1cc(Nc2ccnc(-c3cnn(S(=O)(=O)C4CC4)c3)n2)ncc1-c1cnn([C@H]2CCN(C)C2)c1

fraction unbound [3]: < 0.002
Stability [4]: 1%
Stability [5]: 20%
GI50 (BaF3 [1]): 574 nM
GI50 (BaF3 [2]): 12 nM
Papp [6]: 5.2 ×10⁻⁶ cm/s
logD [7]: 5.4
GI50 (BaF3 [8]): 23 nM
fraction unbound [9]: < 0.002
solubility [10]: > 1100 µg/mL
Compound: COc1nn([C@H]2C[C@H](C)N(C)C2)cc1-c1cnc(Nc2ccnc(-c3cnn(S(=O)(=O)C4CC4)c3)n2)cc1OC(C)C

fraction unbound [3]: < 0.002
Stability [4]: 18%
Stability [5]: 55%
GI50 (BaF3 [1]): 760 nM
GI50 (BaF3 [2]): 9.4 nM
Papp [6]: 9 ×10⁻⁶ cm/s
logD [7]: 4.6
GI50 (BaF3 [8]): 13 nM
fraction unbound [9]: < 0.002
solubility [10]: 1200 µg/mL (≈ 1910 µM)
Compound: CC(C)Oc1cc(Nc2ccnc(-c3cnn(S(=O)(=O)C4CC4)c3)n2)ncc1-c1cn(C2CCN(C)CC2)nc1OC(F)F
Activity [11]: Non-Toxic
inhibition in vivo at 25 mg/kg (BaF3 [12]): 119%
Activity [13]: Non-Toxic
Activity (BaF3 [14]): Dose-Dependent Effect
Activity (BaF3 [15]): Dose-Dependent Effect
Activity [16]: Non-Toxic
inhibition in vivo at 25 mg/kg (BaF3 [17]): 111%
inhibition (INH) [18]: 100%
inhibition in vivo at 12.5 mg/kg (BaF3 [19]): 88%
inhibition in vivo at 100 mg/kg (BaF3 [20]): 127%
Activity [21]: Non-Toxic

GI50 (BaF3 [1]): 203 nM
GI50 (BaF3 [2]): 9.6 nM
Compound: CC(C)Oc1cc(Nc2ccnc(-c3cnn(S(=O)(=O)C4CC4)c3)n2)ncc1-c1cnn(C2CCN(C)CC2)c1

GI50 (BaF3 [1]): 318 nM
GI50 (BaF3 [2]): 21 nM
Compound: CC(C)Oc1cc(Nc2ccnc(-c3cnn(S(=O)(=O)C4CC4)c3)n2)ncc1-c1cnn([C@@H]2CCN(C)C2)c1

solubility [22]: 15 µg/mL (≈ 25.3 µM)
fraction unbound [3]: < 0.002
Stability [4]: 24%
Stability [5]: 48%
GI50 (BaF3 [1]): 565 nM
GI50 (BaF3 [2]): 6.5 nM
Papp [6]: 3.1 ×10⁻⁶ cm/s
logD [7]: 4.4
GI50 (BaF3 [8]): 18 nM
fraction unbound [9]: < 0.002
solubility [10]: > 1100 µg/mL
Compound: COc1nn(C2CCN(C)CC2)cc1-c1cnc(Nc2ccnc(-c3cnn(S(=O)(=O)C4CC4)c3)n2)cc1OC(C)C
